Source: ChEMBL document CHEMBL1201862, “PubChem BioAssay data set” (2004)
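Following 48 hours of exposure in 96-well plates, responses at five concentrations were used to interpolate endpoints linearly. GI50: concentration for 50% inhibition of growth.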 Calls of active or inactive are those of the source. Cut-off read from the data, not from the text of the source: active = GI50 up to about 1.1 µM and inactive = higher.

Assays:
Assay in all cases: NCI-60 cell line screen, 48 h
[1] = test system: SF-268
[2] = test system: RPMI-8226
[3] = test system: ACHN
[4] = test system: A549
[5] = test system: HCC 2998
[6] = test system: SK-MEL-2
[7] = test system: CAKI-1
[8] = test system: KM12
[9] = test system: UO-31
[10] = test system: CCRF-CEM
[11] = test system: DLD-1
[12] = test system: M19-MEL
[13] = test system: COLO 205
[14] = test system: 786-0
[15] = test system: SK-MEL-28
[16] = test system: M14
[17] = test system: DMS-273
[18] = test system: SK-MEL-5
[19] = test system: SW-620
[20] = test system: HT-29
[21] = test system: HOP-18
[22] = test system: XF498
[23] = test system: SF-295
[24] = test system: Malme-3M
[25] = test system: OVCAR-3
[26] = test system: NCI-H460
[27] = test system: NCI-H23
[28] = test system: UACC-257
[29] = test system: HOP-62
[30] = test system: SNB-19
[31] = test system: SR
[32] = test system: LOX IMVI
[33] = test system: SN12C
[34] = test system: SF-539
[35] = test system: SNB-75
[36] = test system: HCT-116
[37] = test system: NCI-H522
[38] = test system: NCI-H226
[39] = test system: MOLT-4
[40] = test system: OVCAR-4
[41] = test system: OVCAR-5
[42] = test system: SNB-78
[43] = test system: EKVX
[44] = test system: TK-10
[45] = test system: HCT-15
[46] = test system: OVCAR-8
[47] = test system: HL-60
[48] = test system: DMS-114
[49] = test system: K562
[50] = test system: LXFL 529
[51] = test system: SK-OV-3
[52] = test system: U-251
[53] = test system: A498
[54] = test system: HOP-92
[55] = test system: KM-20L2
[56] = test system: IGROV-1
[57] = test system: RXF 393
[58] = test system: UACC-62

Structure (SMILES): COc1ccc(CNc2cnc3ccc(N)cc3n2)cc1OC
- GI50 [1]: > 100 µM (inactive)
- GI50 [2]: > 100 µM (inactive)
- GI50 [3]: > 100 µM (inactive)
- GI50 [4]: > 100 µM (inactive)
- GI50 [5]: > 100 µM (inactive)
- GI50 [6]: > 100 µM (inactive)
- GI50 [7]: > 100 µM (inactive)
- GI50 [8]: > 100 µM (inactive)
- GI50 [9]: 79.6 µM (inactive)
- GI50 [10]: > 100 µM (inactive)
- GI50 [11]: > 100 µM (inactive)
- GI50 [12]: 64.3 µM (inactive)
- GI50 [13]: 60 µM (inactive)
- GI50 [14]: > 100 µM (inactive)
- GI50 [15]: 67 µM (inactive)
- GI50 [16]: > 100 µM (inactive)
- GI50 [17]: 41.3 µM (inactive)
- GI50 [18]: > 100 µM (inactive)
- GI50 [19]: > 100 µM (inactive)
- GI50 [20]: > 100 µM (inactive)
- GI50 [21]: 0.548 µM (active)
- GI50 [22]: > 100 µM (inactive)
- GI50 [23]: > 100 µM (inactive)
- GI50 [24]: > 100 µM (inactive)
- GI50 [25]: > 100 µM (inactive)
- GI50 [26]: > 100 µM (inactive)
- GI50 [27]: > 100 µM (inactive)
- GI50 [28]: > 100 µM (inactive)
- GI50 [29]: > 10 µM (inactive)
- GI50 [30]: > 100 µM (inactive)
- GI50 [31]: > 100 µM (inactive)
- GI50 [32]: > 100 µM (inactive)
- GI50 [33]: > 100 µM (inactive)
- GI50 [34]: > 100 µM (inactive)
- GI50 [35]: 66.7 µM (inactive)
- GI50 [36]: 53.8 µM (inactive)
- GI50 [37]: > 100 µM (inactive)
- GI50 [38]: > 100 µM (inactive)
- GI50 [39]: > 100 µM (inactive)
- GI50 [40]: > 100 µM (inactive)
- GI50 [41]: > 100 µM (inactive)
- GI50 [42]: > 100 µM (inactive)
- GI50 [43]: > 100 µM (inactive)
- GI50 [44]: 64.6 µM (inactive)
- GI50 [45]: > 100 µM
- GI50 [46]: > 100 µM (inactive)
- GI50 [47]: > 100 µM (inactive)
- GI50 [48]: 47.3 µM (inactive)
- GI50 [49]: > 100 µM (inactive)

Structure (SMILES): Brc1ccc2c(c1)C1C(CO2)C(c2ccccc2)=NN1c1ccccc1 (configuration not stated)
- GI50 [1]: > 100 µM (inactive)
- GI50 [2]: 77.6 µM (inactive)
- GI50 [3]: > 100 µM (inactive)
- GI50 [4]: > 100 µM (inactive)
- GI50 [5]: > 100 µM (inactive)
- GI50 [6]: > 100 µM (inactive)
- GI50 [8]: > 100 µM (inactive)
- GI50 [9]: > 100 µM (inactive)
- GI50 [10]: > 100 µM (inactive)
- GI50 [11]: > 100 µM (inactive)
- GI50 [50]: > 100 µM (inactive)
- GI50 [12]: > 100 µM (inactive)
- GI50 [13]: > 100 µM (inactive)
- GI50 [14]: > 100 µM (inactive)
- GI50 [15]: > 100 µM (inactive)
- GI50 [17]: > 100 µM (inactive)
- GI50 [19]: > 100 µM (inactive)
- GI50 [20]: 54.2 µM (inactive)
- GI50 [51]: > 100 µM (inactive)
- GI50 [52]: > 100 µM (inactive)
- GI50 [21]: 60 µM (inactive)
- GI50 [53]: > 100 µM (inactive)
- GI50 [22]: > 100 µM (inactive)
- GI50 [23]: > 100 µM (inactive)
- GI50 [24]: > 100 µM (inactive)
- GI50 [25]: > 100 µM (inactive)
- GI50 [26]: > 100 µM (inactive)
- GI50 [27]: > 100 µM (inactive)
- GI50 [28]: > 100 µM (inactive)
- GI50 [54]: 57.3 µM (inactive)
- GI50 [29]: > 100 µM (inactive)
- GI50 [30]: > 100 µM (inactive)
- GI50 [55]: > 100 µM (inactive)
- GI50 [32]: > 100 µM (inactive)
- GI50 [35]: > 100 µM (inactive)
- GI50 [36]: > 100 µM (inactive)
- GI50 [39]: > 100 µM (inactive)
- GI50 [56]: > 100 µM (inactive)
- GI50 [57]: > 100 µM (inactive)
- GI50 [41]: > 100 µM (inactive)
- GI50 [42]: > 100 µM (inactive)
- GI50 [43]: > 100 µM (inactive)
- GI50 [44]: > 100 µM (inactive)
- GI50 [46]: > 100 µM (inactive)
- GI50 [47]: 90.8 µM (inactive)
- GI50 [48]: > 100 µM (inactive)
- GI50 [49]: 78.9 µM (inactive)

Structure (SMILES): COc1ccc(-c2csc(=[N+]3CCCCC3)s2)cc1
- GI50 [1]: 1.42 µM (inactive)
- GI50 [2]: 2.11 µM (inactive)
- GI50 [3]: 9.44 µM (inactive)
- GI50 [4]: 1.94 µM (inactive)
- GI50 [5]: 3.85 µM (inactive)
- GI50 [6]: 3.63 µM (inactive)
- GI50 [7]: 2.36 µM (inactive)
- GI50 [8]: 2.36 µM (inactive)
- GI50 [9]: > 100 µM (inactive)
- GI50 [10]: 1.62 µM (inactive)
- GI50 [11]: 4.79 µM (inactive)
- GI50 [50]: 3.07 µM (inactive)
- GI50 [12]: 2.61 µM (inactive)
- GI50 [13]: 1.49 µM (inactive)
- GI50 [14]: 4.83 µM (inactive)
- GI50 [15]: 6 µM (inactive)
- GI50 [16]: 10.9 µM (inactive)
- GI50 [17]: 3.27 µM (inactive)
- GI50 [18]: 1.87 µM (inactive)
- GI50 [19]: 2.88 µM (inactive)
- GI50 [20]: 3.01 µM (inactive)
- GI50 [51]: 3.41 µM (inactive)
- GI50 [52]: 0.743 µM (active)
- GI50 [21]: 5.15 µM (inactive)
- GI50 [22]: 4.05 µM (inactive)
- GI50 [23]: 1.98 µM (inactive)
- GI50 [24]: 2.76 µM (inactive)
- GI50 [25]: 3.92 µM (inactive)
- GI50 [26]: 3.71 µM (inactive)
- GI50 [27]: 1.63 µM (inactive)
- GI50 [28]: 3.34 µM (inactive)
- GI50 [54]: 2.38 µM (inactive)
- GI50 [29]: 2.54 µM (inactive)
- GI50 [30]: 1.67 µM (inactive)
- GI50 [55]: 2.66 µM (inactive)
- GI50 [31]: 2.26 µM (inactive)
- GI50 [32]: 4.83 µM (inactive)
- GI50 [33]: 3.61 µM (inactive)
- GI50 [34]: 4.56 µM (inactive)
- GI50 [35]: 1.23 µM (inactive)
- GI50 [36]: 4.42 µM (inactive)
- GI50 [37]: 1.72 µM (inactive)
- GI50 [38]: 2.92 µM (inactive)
- GI50 [39]: 2.53 µM (inactive)
- GI50 [40]: 4.48 µM (inactive)
- GI50 [56]: 4.54 µM (inactive)
- GI50 [57]: 4.14 µM (inactive)
- GI50 [41]: 8.83 µM (inactive)
- GI50 [42]: 3.58 µM (inactive)
- GI50 [43]: 6.76 µM (inactive)
- GI50 [44]: 29.3 µM (inactive)
- GI50 [45]: 47.3 µM
- GI50 [58]: 7.78 µM (inactive)
- GI50 [46]: 3.05 µM (inactive)
- GI50 [47]: 2.29 µM (inactive)
- GI50 [49]: 2.23 µM (inactive)
